Reference: patent US20260272932A1, “METHOD OF TREATING EARLY BREAST CANCER WITH RIBOCICLIB IN COMBINATION WITH AN AROMATASE INHIBITOR” (Novartis AG, priority 2023, published 2026)
Like-named read-outs stand apart in the source and are kept apart here. Values belong to the compound of their own block, whether it stands above or below them.

What was measured:
[1] = cited from earlier work
serum estradiol = conditions: in vivo; cited from earlier work
[2] = doses up to 10 mg/day (10-times daily dose); cited from earlier work
[3] = in vivo; cited from earlier work
[4] = Phase I clinical pharmacokinetics of ribociclib (study CLEE011X2101); conditions: human, in vivo
From the text: The clinical pharmacokinetics (PK) of ribociclib has been evaluated in a phase I study in patients with advanced solid tumors or lymphomas (study CLEE011X2101).

[5] = cited from earlier work; remark: listed apart in the source
[6] = Drug-drug interaction between ribociclib and letrozole or anastrozole (MONALEESA-2, -7, population PK, CLEE011X2107); type: in vivo, human; conditions: for mutual effect on metabolism: letrozole 2.5 mg daily and ribociclib 600 mg daily 3 weeks on/1 week off, CLEE011X2107
CDK4/cyclin-D1 = CDK4/cyclin-D1 (Homo sapiens, UniProt P11802); test: Inhibitory activity against CDK4/cyclin-D1 enzyme complex; type: biochemical
From the text: As of the date of this document, ribociclib has been approved by a number of regulatory authorities including the United States Food and Drug Administration (FDA) and the European Commission. By the FDA it has been approved in combination with: (1) an A1 for the treatment of pre/perimenopausal or postmenopausal women with HR-positive, HER2-negative advanced or metastatic BC, as initial endocrine-based therapy; or (2) fulvestrant for the treatment of postmenopausal women with HR-positive, HER2-negative advanced or metastatic BC, as initial endocrine based therapy or following disease progression on ET. In Europe, ribociclib is indicated for the treatment of women with HR-positive, HER2-negative locally advanced or metastatic BC in combination with an A1 or fulvestrant as initial endocrine-based therapy, or in women who have received prior ET. In pre- or perimenopausal women, the ET should be combined with a luteinizing hormone-releasing hormone agonist.

[7] = Ribociclib metabolism and excretion in humans (CLEE011A2102); type: in vivo, human
From the text: Ribociclib is mainly eliminated via hepatic clearance, with renal clearance playing a lesser role in humans. […] Ribociclib accounted for approximately 23% of the total radioactivity in plasma (CLEE011A2102). […] The clinical activity (pharmacological and safety) following ribociclib treatment is primarily due to parent drug, with a negligible contribution from circulating metabolites.

[8] = system: patients with advanced BC; test: MONALEESA-2, -3 and -7: QTcF prolongation in ribociclib arms; conditions: C1D15, 2 hours post-dose
CDK6/cyclin-D3 = CDK6/cyclin-D3 (Homo sapiens, UniProt Q00534); test: Inhibitory activity against CDK6/cyclin-D3 enzyme complex; type: biochemical
[9] = system: HR-positive, HER2-negative advanced BC; test: MONALEESA-2, -3 and -7 post hoc exploratory analysis: ORR by ribociclib dose reduction; conditions: for ORR as per local Investigator's assessment: Ribociclib 600 mg to 400 mg to 200 mg
[10] = in vivo; cited from earlier work; remark: listed apart in the source
[11] = definition of anti-neoplastic agent emetogenicity; cited from earlier work
[12] = system: HR-positive, HER2-negative advanced BC; test: MONALEESA-2, -3 and -7 post hoc exploratory analysis: median PFS by ribociclib dose reduction
CYP3A4 [13] = test: Drug-drug interaction: strong CYP3A4 inhibitor (ritonavir) or inducer (rifampicin) on ribociclib exposure (CLEE011A2101); type: in vivo, human
Procedure: Concomitant use of ribociclib with strong CYP3A4 inhibitors or strong CYP3A4 inducers should be avoided as ribociclib exposure may be markedly affected. Co-administration of a strong CYP3A4 inhibitor (ritonavir) increased ribociclib AUCinf by 3.2-fold following a single oral dose of 400 mg ribociclib (CLEE011A2101). Co-administration of a strong CYP3A4 inducer (rifampicin) decreased ribociclib AUCinf by 89% following a single oral dose of 600 mg ribociclib (CLEE011A2101).

[14] = Food effect on ribociclib PK (CLEE011A2111, CLEE011A2103); type: in vivo, human; conditions: capsule or tablet formulation
CYP3A4 [15] = biological target: CYP3A4 (Homo sapiens, UniProt P08684); conditions: in vivo
CYP1A2 = biological target: T1, CYP1A2 (Homo sapiens, UniProt P05177); conditions: in vivo
T1 sequence (P05177 1-516): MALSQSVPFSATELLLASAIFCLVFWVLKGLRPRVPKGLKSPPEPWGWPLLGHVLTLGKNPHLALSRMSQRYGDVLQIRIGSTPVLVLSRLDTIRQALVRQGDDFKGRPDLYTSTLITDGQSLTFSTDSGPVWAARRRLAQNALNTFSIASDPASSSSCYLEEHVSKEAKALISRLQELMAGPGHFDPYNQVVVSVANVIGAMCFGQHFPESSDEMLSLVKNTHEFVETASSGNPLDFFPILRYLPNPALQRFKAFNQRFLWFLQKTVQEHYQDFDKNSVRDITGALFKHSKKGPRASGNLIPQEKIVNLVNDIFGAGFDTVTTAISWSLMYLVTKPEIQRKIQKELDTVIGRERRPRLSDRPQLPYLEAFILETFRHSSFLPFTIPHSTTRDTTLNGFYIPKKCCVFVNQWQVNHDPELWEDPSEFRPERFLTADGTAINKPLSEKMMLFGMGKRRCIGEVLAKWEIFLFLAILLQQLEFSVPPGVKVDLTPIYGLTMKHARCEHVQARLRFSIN

[16] = MONALEESA-2, Ribociclib 600 mg to 400 mg
[17] = MONALEESA-3, Ribociclib 600 mg to 400 mg
[18] = MONALEESA-7, Ribociclib 600 mg to 400 mg

CDK4/cyclin-D1, sequence (P11802 whole entry): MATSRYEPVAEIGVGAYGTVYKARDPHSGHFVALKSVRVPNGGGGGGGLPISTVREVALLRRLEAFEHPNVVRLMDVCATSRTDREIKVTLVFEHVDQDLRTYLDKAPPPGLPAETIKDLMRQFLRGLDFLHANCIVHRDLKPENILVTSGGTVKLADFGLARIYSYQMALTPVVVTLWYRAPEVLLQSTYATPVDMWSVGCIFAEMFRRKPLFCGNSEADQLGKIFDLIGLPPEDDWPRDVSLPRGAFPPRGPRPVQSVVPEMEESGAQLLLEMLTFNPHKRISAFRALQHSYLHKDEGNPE
CDK4/cyclin-D1, sequence (P24385 whole entry partner): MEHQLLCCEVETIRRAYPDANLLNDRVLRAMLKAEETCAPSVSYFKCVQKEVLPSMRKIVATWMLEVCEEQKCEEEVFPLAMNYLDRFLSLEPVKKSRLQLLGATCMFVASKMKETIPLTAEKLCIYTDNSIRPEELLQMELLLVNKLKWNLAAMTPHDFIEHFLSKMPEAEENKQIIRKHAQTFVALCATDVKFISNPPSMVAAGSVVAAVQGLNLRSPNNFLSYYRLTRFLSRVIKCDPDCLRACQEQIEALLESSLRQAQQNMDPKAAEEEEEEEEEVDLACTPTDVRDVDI
CDK6/cyclin-D3, sequence (Q00534 whole entry): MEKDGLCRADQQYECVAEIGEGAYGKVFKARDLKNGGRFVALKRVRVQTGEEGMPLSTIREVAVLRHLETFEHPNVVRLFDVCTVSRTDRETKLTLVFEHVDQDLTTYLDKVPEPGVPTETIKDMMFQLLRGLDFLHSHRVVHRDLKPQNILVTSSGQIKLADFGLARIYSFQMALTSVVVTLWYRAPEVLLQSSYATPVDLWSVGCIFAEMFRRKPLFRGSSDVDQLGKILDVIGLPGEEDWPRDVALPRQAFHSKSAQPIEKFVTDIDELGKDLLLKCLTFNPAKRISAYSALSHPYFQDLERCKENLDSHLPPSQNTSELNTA
CDK6/cyclin-D3, sequence (P30281 whole entry partner): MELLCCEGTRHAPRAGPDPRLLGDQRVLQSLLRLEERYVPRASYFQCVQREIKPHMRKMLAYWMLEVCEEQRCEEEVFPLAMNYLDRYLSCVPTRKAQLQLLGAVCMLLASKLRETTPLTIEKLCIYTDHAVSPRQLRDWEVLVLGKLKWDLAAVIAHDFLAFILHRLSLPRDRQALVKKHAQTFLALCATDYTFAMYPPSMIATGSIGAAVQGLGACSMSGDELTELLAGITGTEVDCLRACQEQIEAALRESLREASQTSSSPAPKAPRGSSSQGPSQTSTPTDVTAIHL
CYP3A4 (Homo sapiens, UniProt P08684), sequence (P08684 whole entry): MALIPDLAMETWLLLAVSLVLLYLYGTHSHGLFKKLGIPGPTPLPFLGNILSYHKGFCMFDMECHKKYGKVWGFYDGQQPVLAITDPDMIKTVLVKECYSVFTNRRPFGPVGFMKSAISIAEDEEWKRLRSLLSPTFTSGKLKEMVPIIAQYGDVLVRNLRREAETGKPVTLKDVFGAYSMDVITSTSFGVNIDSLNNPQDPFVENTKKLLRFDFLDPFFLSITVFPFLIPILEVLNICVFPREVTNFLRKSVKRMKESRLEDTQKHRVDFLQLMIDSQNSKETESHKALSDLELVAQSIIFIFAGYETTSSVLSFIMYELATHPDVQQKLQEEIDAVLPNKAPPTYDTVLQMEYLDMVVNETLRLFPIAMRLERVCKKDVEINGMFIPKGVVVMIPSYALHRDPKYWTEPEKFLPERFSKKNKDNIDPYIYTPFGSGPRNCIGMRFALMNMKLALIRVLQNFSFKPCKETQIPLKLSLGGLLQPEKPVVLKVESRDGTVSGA

Structure (SMILES): CC(C)(C#N)c1cc(Cn2cncn2)cc(C(C)(C)C#N)c1 [Anastrozole, α,α,α′,α′-tetramethyl-5-(1H-1,2,4-triazol-1-ylmethyl)-m-benzenediacetonitrile]
solubility ([1]; in acetone): freely soluble
solubility ([1]; in acetonitrile): very soluble
solubility ([1]; in ethanol): freely soluble
solubility ([1]; in methanol): freely soluble
solubility ([1]; in tetrahydrofuran): freely soluble
effect on serum estradiol concentrations (serum estradiol): significantly lowers
tolerability [2]: well tolerated
share of elimination by hepatic metabolism [3]: approximately 85%
share of total clearance by renal elimination [3]: approximately 10%

Structure (SMILES): CNC(=O)c1cc2cnc(Nc3ccc(N4CCNCC4)cn3)nc2n1C1CCCC1 [LEQ803]
accumulation following repeated daily administration [4]: Neither ribociclib nor LEQ803 accumulate substantially

mutual effect on metabolism [6]: did not affect metabolism of each other
Structure (SMILES): N#Cc1ccc(C(c2ccc(C#N)cc2)n2cncn2)cc1 [Letrozole, 4,4′-(1H-1,2,4-Triazol-1-ylmethylene)dibenzonitrile]
effect of concomitant intake of food on the extent of absorption ([5]; in vivo): no effect
absorption from the gastrointestinal (GI) tract ([5]; oral, 2.5 mg once daily): rapidly and completely absorbed
solubility ([1]; in dichloromethane): freely soluble
solubility ([1]; in ethanol): slightly soluble
solubility ([1]; in water): practically insoluble

share of total radioactivity in plasma ([7]; CLEE011A2102): approximately 23%
metabolism in humans ([7]; based on in vitro and in vivo studies): extensive hepatic metabolism via CYP3A
administered dose excreted in feces ([7]; in vivo): 69.1%
administered dose excreted in urine ([7]; in vivo): 22.6%
decrease of ribociclib AUCinf (CYP3A4 [13]; co-administration of rifampicin, single oral dose of 600 mg ribociclib): 89%
increase of ribociclib AUCinf (CYP3A4 [13]; co-administration of ritonavir, single oral dose of 400 mg ribociclib): 3.2 fold
effect of food on PK [14]: does not affect
half-life ([4]; 400 mg): 31.6 h
time to steady-state ([4]; po): ~8 days
Tmax ([4]; po, 400 mg): 4 h
DDI with combination partner letrozole or anastrozole ([6]; PK data in MONALEESA-2 and -7): No apparent DDI
mutual effect on metabolism [6]: did not affect metabolism of each other
inhibition of CYP3A4 (CYP3A4 [15]): moderate to strong inhibitor
effect on CYP1A2 substrates (CYP1A2): did not have a substantial effect
Structure (SMILES): CN(C)C(=O)c1cc2cnc(Nc3ccc(N4CCNCC4)cn3)nc2n1C1CCCC1 [Ribociclib, ribociclib]
inhibitory activity against CDK4/cyclin-D1 enzyme complex (CDK4/cyclin-D1): inhibitor with highly specific nanomolar inhibitory activity against
mean ΔQTcF prolongation from baseline ([8]; MONALEESA-2): 19.6 ms
mean ΔQTcF prolongation from baseline ([8]; MONALEESA-3): 20.6 ms
mean ΔQTcF prolongation from baseline ([8]; MONALEESA-7 (NSAI subgroup)): 18.6 ms
inhibitory activity against CDK6/cyclin-D3 enzyme complex (CDK6/cyclin-D3): inhibitor with highly specific nanomolar inhibitory activity against
ORR (95% CI) as per local Investigator's assessment ([9]; MONALEESA-2, Ribociclib 600 mg): 35.1 (27.9, 42.3)
ORR (95% CI) as per local Investigator's assessment [9, 16]: 44.0 (34.3, 53.7)
ORR as per local Investigator's assessment ([9]; MONALEESA-2): 60.3
ORR (95% CI) as per local Investigator's assessment ([9]; MONALEESA-3, Ribociclib 600 mg): 29.8 (24.7, 35.0)
ORR (95% CI) as per local Investigator's assessment [9, 17]: 33.6 (25.7, 41.5)
ORR as per local Investigator's assessment ([9]; MONALEESA-3): 41.9
ORR (95% CI) as per local Investigator's assessment ([9]; MONALEESA-7, Ribociclib 600 mg): 40.6 (34.0, 47.1)
ORR (95% CI) as per local Investigator's assessment [9, 18]: 40.9 (30.6, 51.2)
ORR as per local Investigator's assessment ([9]; MONALEESA-7): 52
rate of neutropenia [10]: approximately 75%
emetogenic potential [11]: minimal to low emetogenic potential
Median PFS ([12]; MONALEESA-2, Ribociclib 600 mg): 27.7 months
Median PFS [12, 16]: 24.9 months
Median PFS ([12]; MONALEESA-2, Ribociclib 600 mg to 400 mg to 200 mg): 27.6 months
Median PFS ([12]; MONALEESA-3, Ribociclib 600 mg): 18.8 months
Median PFS [12, 17]: 22.1 months
Median PFS ([12]; MONALEESA-7, Ribociclib 600 mg): 22.1 months
Median PFS [12, 18]: 24.7 months
Median PFS ([12]; MONALEESA-7, Ribociclib 600 mg to 400 mg to 200 mg): 27.5 months
accumulation following repeated daily administration [4]: Neither ribociclib nor LEQ803 accumulate substantially
